Assay results taken from US12650432B2, “SCARA5 and DIO2 as biomarkers for miscarriage and implantation failure” (The University of Warwick, priority 2019, dated 2026).
Values joined by “and” are separate entries in the source; they are usually repeats but may differ in a detail not shown here. Identical values can stand only once. Marks after values point to notes of the source that are not given here.

Key:
[1] = tested on: PRL; assay: RT-qPCR of PRL transcript in paired endometrial biopsies; format: in vivo, human; details: second vs baseline biopsy, oral 100 mg daily for 3 cycles, n=16
Description: (§1) RNA was extracted from RNAlater preserved tissue using the RNeasy Lipid Tissue Mini Kit (QIAGEN, Manchester, UK), with on-column DNase treatment, according to the manufacturer's instructions. RNA was assessed using a Nanodrop ND-1000 spectrophotometer and 1 μg RNA used for reverse transcription, performed using the Quantitect Reverse Transcription Kit (QIAGEN) according to manufacturer's instructions. Thermal cycling was performed on a QuantStudio 5 Real-Time PCR System (ThermoFisher, Paisley, UK), using PrecisionPlus 2× Mastermix (Primer Design, Southampton, UK), 300 nM each forward and reverse primers and 1 μl cDNA. L19 was used as a reference gene and data were analysed using the Pfaffl method (68).
(§2) Induction of PRL and IGFBP1 expression is widely used to monitor the decidual response in cultured EnSC (14).

[2] = tested on: SCARA5; assay: RT-qPCR of SCARA5 mRNA (decidual cell marker) in paired endometrial biopsies; format: in vivo, human; details: second vs baseline biopsy, oral 100 mg daily for 3 cycles, n=16
Description: as §1, §2

[3] = tested on: IGFBP1; assay: RT-qPCR of IGFBP1 transcript in paired endometrial biopsies; format: in vivo, human; details: second vs baseline biopsy, oral 100 mg daily for 3 cycles, n=16
Description: as §1, §2

[4] = tested on: haematopoietic stem and progenitor cells; details: up to 600 mg twice daily, after umbilical cord blood transplantation; cited from earlier work
[5] = tested on: endometrial stromal cells (EnSC); assay: Colony-forming unit (CFU) assay on EnSC from paired endometrial biopsies, randomised placebo-controlled trial in RPL patients; format: in vivo, human
Source text: Participants were recruited from a tertiary recurrent miscarriage clinic at UHCW NHS Trust. […] Participants agreed to actively avoid pregnancy and use barrier contraception for the duration of the trial.
Participants were instructed to take the capsules once daily from the day of the baseline biopsy for 3 menstrual cycles until the second biopsy was taken. The control group were allocated identical placebo capsules also supplied by Sharp Clinical Services and instructed to take these exactly as the intervention group.
(§3) Following written informed consent, participants were given a digital home ovulation test kit (Clearblue, Geneva, Switzerland), an emergency contact card, and barrier contraception. Participants then attended the clinic 7-10 days after the luteinizing hormone (LH) surge (LH+7-10). Following a negative urine pregnancy test, a transvaginal pelvic ultrasound scan was performed. Endometrial thickness was defined as the maximal endometrium diameter measured in a mid-sagittal plane. Next, an endometrial biopsy was obtained using a Wallach Endocell® endometrial sampler. The sample, designated ‘baseline biopsy’, was immediately portioned with one part stored in RNALater Stabilization Solution (Sigma-Aldrich, Dorset, UK) one part snap frozen in liquid nitrogen, one part fixed in 10% formalin for immunohistochemistry, and the remainder placed in 10% DMEM/F12 for isolation of primary endometrial stromal cells (see below). Following randomisation (see below), trial medication was provided and all participants attended two follow-up clinics at 4 weeks±4 day intervals. At these follow-up visits a urine pregnancy test was carried out, symptom diaries were reviewed, adverse events reported, and willingness for continued participation confirmed. At the second follow-up visit, participants were provided with another home ovulation test kit. In the third cycle, participants attended the clinic on LH+7-10 for a repeat transvaginal ultrasound scan with measurement of endometrial thickness and endometrial biopsy. The sample, designated ‘second biopsy’, was processed identically to the baseline biopsy. Trial medication was stopped on the day of the second biopsy.
Primary EnSC were isolated according to our published protocol (65). Briefly, samples were washed in DMEM/F-12 medium (Invitrogen), finely minced and enzymatically digested with 0.5 mg/ml collagenase (Sigma-Aldrich) and 0.1 mg/ml deoxyribonuclease type I (Roche, Burgess Hill, UK) for 1 hour in 5% CO2 at 37° C. Stromal and epithelial fractions were separated and cryopreserved in 10% DMSO in dextran-coated charcoal-stripped fetal bovine serum (DCC; 2 ml per vial; Invitrogen), with the stromal fraction split into two or three vials depending on the biopsy size. After controlled cooling at −80° C. overnight, samples were transferred to liquid nitrogen for storage.
All CFU assays were conducted in batches, consisting of paired primary endometrial stromal cells isolated from baseline and second biopsies from 3 or 4 participants. CFU assays were established as described previously (66). Briefly, cryopreserved stromal cells were thawed for 3 minutes at 37° C. and then transferred immediately into pre-warmed growth medium (DMEM-F12 medium containing 10% DCC supplemented with 1% L-Glutamine and 1% antibiotic-antimycotic mix; Invitrogen). Cells were pelleted by centrifugation at 276×g for 5 minutes, supernatant was aspirated and cells were resuspended in 10 ml growth medium. Viable stromal cells were counted in trypan blue on a Neubauer Improved haemocytometer and seeded at clonal density (53 cells/cm2) onto fibronectin-coated 6-well plates (10 μg/ml in PBS; Sigma-Aldrich) in growth medium supplemented with […] basic fibroblast growth factor (Sigma Aldrich). Three wells, containing 500 cells each, were seeded per biopsy. Plates were cultured in 5% CO2 at 37° C., and left undisturbed for 3 days after which growth was monitored to ensure colonies arose from single cells.

[6] = granulocyte-CSF-dependent mobilisation of BMDC followed by sitagliptin 100 mg for 28 days; cited from earlier work
[7] = tested on: DIO2; assay: RT-qPCR of DIO2 mRNA (senescent decidual cell marker) in paired endometrial biopsies; format: in vivo, human
Description: as §1, §2

[8] = Adverse events and side effects in trial participants; format: in vivo, human
Description: as §3
(§4) Participants were provided with compliance and symptom diaries at each visit. Diaries were assessed at every follow-up or biopsy visit. Acceptability and satisfaction of the study was assessed with a Likert scale-based questionnaire completed by participants after their final visit. Participants who conceived after completion of the study were requested to contact the trial team and outcome of the first pregnancy within one year of study completion was recorded.

[9] = Outcome of first pregnancy within 12 months after study completion; format: in vivo, human; details: sitagliptin group
Description: as §4

[10] = sitagliptin group (n = 16), baseline biopsy before treatment

**Q.** Which results are given for `N[C@@H](CC(=O)N1CCn2c(nnc2C(F)(F)F)C1)Cc1cc(F)c(F)cc1F` [sitagliptin]?
**A.** PRL transcript level normalized to L19 [1]: not significantly different; SCARA5 mRNA level normalized to L19 [2]: not altered significantly; IGFBP1 transcript level normalized to L19 [3]: not significantly different; Engraftment of haematopoietic stem and progenitor cells in bone marrow [4]: improve engraftment of haematopoietic stem and progenitor cells in bone marrow; Second biopsy CFU count, Median (IQR, Range) ([5]; RPL patients, oral 100 mg once daily for 3 menstrual cycles): 14.0 (8.0-29.0, 3-145)^‡ per 1500 EnSC; Median increase in CFU count, second compared to baseline biopsy ([5]; after 3 cycles of sitagliptin): +7 per 1500 EnSC; Mean CFU count in second biopsy higher than placebo group, adjusted for baseline CFU count ([5]; after 3 cycles, oral 100 mg daily): 51%; Mean CFU count, second biopsy ([5]; all data, RPL patients, oral 100 mg once daily for 3 menstrual cycles): 27.67 per 1500 EnSC; Mean CFU count, second biopsy ([5]; all data, RPL patients, oral 100 mg once daily for 3 menstrual cycles, listed as Sitagliptin): 27.7 (35.8) per 1500 EnSC and 27.7 per 1500 EnSC; Average increase in CFU counts compared to baseline biopsy ([5]; sitagliptin given for 3 menstrual cycles): 68%; Baseline CFU count, Mean (SD) [5, 10]: 16.1 (19.6) per 1500 EnSC; Baseline CFU count, Median (IQR, Range) [5, 10]: 8.5 (4.5-17.8, 1-74) per 1500 EnSC; Mean CFU count, second biopsy ([5]; subgroup excluding women with outlying CFU counts (>20 colonies per 1500 cells), after 3 cycles): 14.42 per 1500 EnSC; Cardiac function [6]: failed to improve cardiac function; DIO2 mRNA level, median, second biopsy ([7]; after 3 cycles oral 100 mg daily, n=16, normalized to L19, P=0.0182 vs baseline): 3.86 a.u.; DIO2 mRNA level, median, baseline biopsy ([7]; sitagliptin group before treatment, n=16, normalized to L19): 5.09 a.u.; Adverse events, overall statement ([8]; pre-pregnancy sitagliptin treatment in RPL patients): no adverse events were reported; Chills, events ([8]; sitagliptin group n = 19): 1; Diarrhoea, events ([8]; sitagliptin group n = 19): 0; Dizziness, events ([8]; sitagliptin group n = 19): 2; Dizziness, participants ([8]; sitagliptin group n = 19): 1; Dry Nose, events ([8]; sitagliptin group n = 19): 0; Dry mouth, events ([8]; sitagliptin group n = 19): 1; Headache, events ([8]; sitagliptin group n = 19): 10; Headache, participants ([8]; sitagliptin group n = 19): 4; Low Mood, events ([8]; sitagliptin group n = 19): 1; Mouth ulcers, events ([8]; sitagliptin group n = 19): 0; Myalgia, events ([8]; sitagliptin group n = 19): 1; Nausea, events ([8]; sitagliptin group n = 19): 1; Night sweats, events ([8]; sitagliptin group n = 19): 1; Nose bleed, events ([8]; sitagliptin group n = 19): 0; Rash, events ([8]; sitagliptin group n = 19): 0; Sore Throat, events ([8]; sitagliptin group n = 19): 1; Stuffy Nose, events ([8]; sitagliptin group n = 19): 0; Thinning of hair, events ([8]; sitagliptin group n = 19): 0; Thirst, events ([8]; sitagliptin group n = 19): 1; UTI, events ([8]; sitagliptin group n = 19): 1; Termination of pregnancy at 16 weeks for a fetal abnormality [9]: one; Live births ([9]; 12 pregnancies): 8; Spontaneous pregnancy losses before 12 weeks of gestation ([9]; 12 pregnancies): 3
